In patent US9526802B2, “Nucleic acid complexes” (Purdue Research Foundation, priority 2012, dated 2016):

How the values were obtained:
CHO-GFP cells = experiment: Cell viability assay (1), MTS; type: cell-based
Experimental: FIG. 3 depicts cell viabilities of 1, 2, 3, Chol-PVA-PEG and Chol-PVA-PEG+1 host:guest pendant polymer complexes in CHO-GFP cells using 25 kD bPEI as control.
The cytotoxicity of the amino-CD derivatives in comparison with bPEI (25 kDa) was evaluated using the MTS assay in CHO-GFP cell lines. The relative cell viabilities were measured as a function of amine densities of the polymers. […] After 24 h, culture media were replaced with serum-free culture media containing increasing amine concentrations of amino-CD, polymer and the polymer:CD complexes and the cells were incubated for 24 h. After 24 h, 15 μl of MTS reagent was added to each well and incubated for 2 h. […] All experiments were conducted for three samples and averaged. […] In this study, LD50 was the concentration of a gene carrier at which the relative cell viability decreased to 50%.

pDNA = experiment: Gel shift assay; type: binding; details: various N:P ratios, compared among 4, 5, 6
Experimental: The complexation ability of the systems was studied by gel shift assay. Agarose gels (1% w/v) containing ethidium bromide were made in 1× TE buffer. Transfection complexes were loaded onto the gel at various N:P ratios and 200 ng of DNA added to the wells. The gels were run at 50 V for about 1 h and visualized.
Also, in the absence of polymer, higher N:P ratios were used to condense pDNA effectively. […] This improved condensation capability of 6 relative to 4 and 5 can be attributed to the availability of both the nitrogens on the hydrazine moiety for interaction with pDNA.

SMILES	LD50 (CHO-GFP cells)	capacity for condensing pDNA (pDNA)
CNCCN(C)C[C@H]1O[C@@H]2O[C@H]3[C@H](O)[C@@H](O)[C@@H](O[C@H]4[C@H](O)[C@@H](O)[C@@H](O[C@H]5[C@H](O)[C@@H](O)[C@@H](O[C@H]6[C@H](O)[C@@H](O)[C@@H](O[C@H]7[C@H](O)[C@@H](O)[C@@H](O[C@H]8[C@H](O)[C@@H](O)[C@@H](O[C@H]1[C@H](O)[C@H]2O)O[C@@H]8CO)O[C@@H]7CO)O[C@@H]6CO)O[C@@H]5CO)O[C@@H]4CO)O[C@@H]3CO [Compound 2, Mono-6-(N,N′-dimethylethane-1,2-diamine)-6-deoxy-β-cyclodextrin]	> 10 mM	
NNC[C@H]1O[C@@H]2O[C@H]3[C@H](O)[C@@H](O)[C@@H](O[C@H]4[C@H](O)[C@@H](O)[C@@H](O[C@H]5[C@H](O)[C@@H](O)[C@@H](O[C@H]6[C@H](O)[C@@H](O)[C@@H](O[C@H]7[C@H](O)[C@@H](O)[C@@H](O[C@H]8[C@H](O)[C@@H](O)[C@@H](O[C@H]1[C@H](O)[C@H]2O)O[C@@H]8CNN)O[C@@H]7CNN)O[C@@H]6CNN)O[C@@H]5CNN)O[C@@H]4CNN)O[C@@H]3CNN [Compound 6, hepta-6-hydrazyl-β-CD]		greatest capacity for condensing pDNA
